Experimental data published in US11767313B2, “Compounds as nuclear transport modulators and uses thereof” (XWPHARMA LTD., priority 2018, dated 2023).

Experiments:
[1] = system: 3T3; experiment: Cytotoxicity, cell proliferation assay, 3T3; format: cell-based; conditions: Mus musculus, NIH3T3; Table 9
Method: (§1) CellTiter-Glo® Luminescent Cell Viability assay (with Promega CellTiter 96® Luminescent CellTiter-Glo® kit) was used to study the proliferation inhibition by test compounds. Compounds were resuspended in DMSO to make a 25 mM stock suspension. Cells of cancer cell lines or normal tissues were seeded in 96-well plates at 1,500 to 5,000 cells/well overnight. Compounds were 2- or 3-fold diluted serially to obtain 10 concentrations. Then, the drugs were added to the cell wells by Bravo (Agilent) and incubated for 72 hours. The cells were lysed by adding CellTiter-Glo® Reagent (per manufacturer's instructions) and subsequently, the luminescence was read using EnVision® (PerkinElmer).
(§2) The percent of growth was calculated as follows. DMSO-treated cells were employed as vehicle control (High control, HC) and culture medium alone was employed as background (Low control, EC). % growth=100×(Lum sample−Lum EC)/(Lum HC−Lum EC). The ICso was calculated by concentration-response curve fitting using Graphpad Prism.
The cytotoxicity of test compounds was also determined in glioblastoma (U87MG)), brain (HCN2) and 3T3 cell lines was determined using the cell proliferation assay as described in Example 19.

[2] = system: U87MG cells; experiment: Capase-Glo 317 apoptosis assay; format: cell-based; conditions: Homo sapiens, U-87 MG, 72 hours
Method: A Capase-Glo® 317 assay was used to determine the apoptosis activity of test compounds in U87MG cells.
Compounds were dissolved in 25 mM DMSO stock solution and serially diluted. DMSO was used as the vehicle control (high control, HC) and culture medium was used as the background (low control LC). The test compounds were applied to plates and spun at 25° C. at 1,000 RPM for 1 min and shaken on a plate shaker for 2 min. Samples (80 nL) of the compounds from the plates were transferred to 384-well cell culture plates using a liquid handler.
Cells were harvested and the cell numbers counted. 40 μL of the cell suspension with the adjusted density was added to 384-well cell culture pates. The final cell density is 1,000 cells/well. Cell culture medium only was used in the low control (LC) samples. The plates were covered with a lid and placed in a 5% CO2 incur at 37° C. for 72 hours.
After incubating for 72 hours, the plates were removed from the incubator and equilibrated at 25° C. for 15 minutes. CellTiter Glo® regen was incubated at 37° C. before the experiments. 40 μL of Capase-Glo® 317 was added into each well to be detected at a 1:1 ratio to culture medium. The plates were then placed at 25° C. for 30 min and read using an EnSpire® Plate Reader.
The % activity remaining was determined using the following formula: % Remaining Activity=[…]×(Lumsample−LumLC)/(LumHC−LUM LC), where HC is obtained from cells treated with 0.1% DMSO only, LC is obtained from culture medium only.

[3] = system: A-172; experiment: CellTiter-Glo cell viability assay, A-172; format: cell-based; conditions: Homo sapiens, Table 6
Method: as §1, §2
The inhibition activity of test compounds was determined in A-172, U87MG and 3T3-L1 cell lines.
A CellTiter-Glo® luminescent cell viability assay was performed s described in Example 1.

[4] = system: H460; experiment: CellTiter-Glo cell proliferation assay, H460; format: cell-based; conditions: Homo sapiens, NCI-H460, 72 hours, Table 1, read-out: Growth inhibition (IC50)
Method: as §1, §2
Hematological cancer cell lines tested included OCI-AML3, MV-4-11, KG-1, Kasumi-1, K562, THP-1; solid cancer cell lines tested included U87MG, U251, T98G, LN229, A172, H460, H2009, A549; normal cell lines tested included HCN2 and 3T3-L1. […] However, they were not toxic to in vitro cultured normal cells.

[5] = mouse, in vivo, po
[6] = Pharmacokinetic profile in plasma; format: in vivo; conditions: mouse, iv, I. V., mice
[7] = Ratio of brain to plasma; format: in vivo; conditions: rats, 10 mg/kg PO
Method: Following collection, brain tissue was rinsed with cold saline, dried on filter paper, weighed and snap-frozen by placing on dry ice. All samples were stored frozen at approximately −80° C. until analysis. At the time of analysis, brain tissue was homogenized (homogenizing solution PBS, pH 7.4), mixed with internal standard in acetonitrile, vortexed, centrifuged, and supernatant was injected for analysis. Concentration of compounds in plasma was determined using LC-MS-MS instrumentation (API 4000, Triple Quadrupole LC/MS/MS Mass Spectrometer). Plasma samples were treated with the identical method (except homogenization step) and the concentration of compound in each matrix was calculated based on generated standard curves.

[8] = target: XPO1 (Homo sapiens, UniProt O14980); experiment: Compound washout assay in REV-GFP cells; conditions: for XPO1 inhibition post washout: 400 nM (EC90); for effect on nuclear retention of REV: at EC50 (120 nM)
Sequence of XPO1 (O14980 whole entry): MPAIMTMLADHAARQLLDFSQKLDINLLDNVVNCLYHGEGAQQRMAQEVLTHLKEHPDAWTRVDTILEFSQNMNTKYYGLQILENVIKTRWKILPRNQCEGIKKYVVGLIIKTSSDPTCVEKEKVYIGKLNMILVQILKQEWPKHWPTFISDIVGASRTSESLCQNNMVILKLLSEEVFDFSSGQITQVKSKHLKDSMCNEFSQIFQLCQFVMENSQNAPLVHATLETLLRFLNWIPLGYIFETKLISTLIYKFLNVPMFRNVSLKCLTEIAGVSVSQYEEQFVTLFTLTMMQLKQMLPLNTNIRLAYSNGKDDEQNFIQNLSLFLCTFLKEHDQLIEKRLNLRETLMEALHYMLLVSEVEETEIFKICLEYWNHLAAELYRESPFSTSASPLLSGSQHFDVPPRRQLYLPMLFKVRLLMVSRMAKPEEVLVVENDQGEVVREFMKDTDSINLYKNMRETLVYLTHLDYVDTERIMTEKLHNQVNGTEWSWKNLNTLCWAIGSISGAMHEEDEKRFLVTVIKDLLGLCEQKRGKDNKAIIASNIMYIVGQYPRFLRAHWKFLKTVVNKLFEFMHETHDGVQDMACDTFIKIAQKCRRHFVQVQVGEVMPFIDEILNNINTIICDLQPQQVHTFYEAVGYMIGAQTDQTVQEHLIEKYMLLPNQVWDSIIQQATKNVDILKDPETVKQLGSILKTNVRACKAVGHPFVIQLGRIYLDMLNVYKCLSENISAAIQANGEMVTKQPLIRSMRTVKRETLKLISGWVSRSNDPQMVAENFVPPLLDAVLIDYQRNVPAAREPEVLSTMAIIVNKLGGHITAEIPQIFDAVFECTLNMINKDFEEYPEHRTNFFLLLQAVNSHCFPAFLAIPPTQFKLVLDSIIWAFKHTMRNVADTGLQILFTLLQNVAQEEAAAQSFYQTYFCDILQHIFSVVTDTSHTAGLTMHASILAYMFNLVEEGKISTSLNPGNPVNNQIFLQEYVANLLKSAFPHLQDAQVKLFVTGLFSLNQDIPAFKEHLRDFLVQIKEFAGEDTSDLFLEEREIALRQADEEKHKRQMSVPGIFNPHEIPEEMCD
Method: In order to evaluate the duration of XPO1 inhibition by test compounds on XPO1 protein after washout, washout assay was performed using REV-GFP cells. The test compounds and positive control were added to the cell well, and the plate was incubated the at 37° C. and 5% CO2 for 1 h. The drug-containing media were removed, the cells were washed, and the fresh media were added. The cells were imagined at the specified time points 0, 4, 24, 48, 72, and 96 hours to evaluate the inhibition of REV nuclear export. […] 4A. […] 4B. […] 4C.

O=C(/C=C\n1cnc(-c2cc(C(F)(F)F)cc(S(F)(F)(F)(F)F)c2)n1)NNc1cnccn1 [Compound I, (Z)-3-(3-(3-(pentafluorosulfanyl)-5-(trifluoromethyl)phenyl)-1H-1,2,4-triazol-1-yl)-N′-(pyrazin-2-yl)acrylohydrazide]
IC50 [1]: > 50000 nM | EC50 [2]: 16000 nM | Emax ([2]; U87MG): 325% | IC50 [3]: 407 nM | IC50 [4]: 294 nM | survival in MTD study [5]: survived | AUC(0-t) [6]: 1040 ng·h/mL | C0 [6]: 1010 ng/mL | clearance [6]: 16 mL/min/kg | half-life [6]: 1.62 h | MRT last ([6]; read-out: MRT0-last): 1.56 h | Vd ([6]; read-out: Vdss): 1.68 L/kg | Kp at 0.25 h ([7]; rat, brain/plasma, 0.25 h): 0.386 | Kp at 1 h ([7]; rat, brain/plasma, 1 h): 0.707 | Kp at 8 h ([7]; rat, brain/plasma, 8 h): 0.782 | brain concentration (second number of pair) ([7]; 0.25 h): 319 ng/g | plasma concentration (first number of pair) ([7]; 0.25 h): 810 ng/g | brain concentration (second number of pair) ([7]; 1 h): 1301 ng/g | plasma concentration (first number of pair) ([7]; 1 h): 1887 ng/g | brain concentration (second number of pair) ([7]; 8 h): 194 ng/g | plasma concentration (first number of pair) ([7]; 8 h): 252 ng/g

CC(C)(C)C(=O)NNC(=O)/C=C\n1cnc(-c2cc(C(F)(F)F)cc(S(F)(F)(F)(F)F)c2)n1 [Compound III, (Z)-3-(3-(3-(Pentafluorosulfanyl)-5-(trifluoromethyl)phenyl)-1H-1,2,4-triazol-1-yl)-N′-pivaloylacrylohydrazide]
XPO1 inhibition post washout ([8]; 4 hours post washout): sustained XPO1 inhibition | XPO1 inhibition post washout ([8]; by 24 hours post washout): gradually diminished | effect on nuclear retention of REV ([8]; 4 hours post washout): 20% | effect on nuclear retention of REV ([8]; 24 hours post washout): completely lost | effect on nuclear retention of REV ([8]; following 1-hour treatment): about 40% | toxicity / cell number compared to the control ([8]; washout assay): no decrease in the cell number was observed
